The source of these data is patent US9510598B2, “Nitrogen-containing heterocyclic compounds for plant disease control” (BAYER CROPSCIENCE AG, priority 2012, dated 2016).

The format of one data set is physicochemical. To be noted: HPLC on reversed phase columns, method [a]: pH 2.7, 0.1% formic acid in water / acetonitrile, linear gradient 10% to 95% acetonitrile.
Regarding `CC1(C(=O)NC2COC2)CC(c2ccc3ncc(Br)cc3c2)=NO1` (stereo not shown) [compound 235], the “log P” value is 1.99^[a].

As to `C#Cc1cnc2ccc(C3=NOC(C)(C(=O)NC4CCCCC4)C3)cc2c1` (stereo not shown) [compound 236], the “log P” value was 3.25^[a].

Turning to `CC1(C(=O)NC2CCCCC2)CC(c2ccc3ncc(Br)cc3c2)=NO1` (stereo not shown) [compound 239], the “log P” value is 3.63^[a].

As for `CN1C(C)(C)CC(NC(=O)C2(C)CC(c3ccc4ncc(Br)cc4c3)=NO2)CC1(C)C` (stereo not shown) [compound 240], the “log P” value is 1.47^[a].

As for `CC1(C(=O)NCC#Cc2ccc(Cl)cc2)CC(c2ccc3ncc(Br)cc3c2)=NO1` (stereo not shown) [compound 248], the “log P” value was 4.06^[a].

As for `CC1(C(=O)NCC2CCCCC2)CC(c2ccc3ncc(Br)cc3c2)=NO1` (stereo not shown) [compound 249], the “log P” value is 3.96^[a].

Take `C#Cc1cnc2ccc(C3=NOC(C)(C(=O)NCC4C5CC6CC(C5)CC4C6)C3)cc2c1` (stereo not shown) [compound 250]: the “log P” value is 4.46^[a].

As to `C#CCOc1coc(CNC(=O)C2(C)CC(c3ccc4ncc(Br)cc4c3)=NO2)cc1=O` (stereo not shown) [compound 251], the “log P” value was 2.2^[a].

Regarding `CC1(C(=O)NC2CCCCNC2=O)CC(c2ccc3ncc(Br)cc3c2)=NO1` (stereo not shown) [compound 252], the “log P” value is 2.23^[a].

Consider `C#Cc1cnc2ccc(C3=NOC(C)(C(=O)NCc4ccc5ccccc5n4)C3)cc2c1` (stereo not shown) [compound 253], for which the “log P” value was 2.45^[a].

Consider `CCCSc1cnc2ccc(C3=NOC(C)(C(=O)NC(C)C)C3)cc2c1` (stereo not shown) [compound 254], for which the “log P” value was 3.26^[a].

As to `CC(C)NC(=O)C12CCCC1C(c1ccc3ncc(Br)cc3c1)=NO2` (stereo not shown) [compound 255], the “log P” value is 3.19^[a].

In the case of `CCn1cc(CNC(=O)C2(C)CC(c3ccc4nc(OC)c(Br)cc4c3)=NO2)c(C)n1` (stereo not shown) [compound 263], the “log P” value was 2.96^[a].

Regarding `CCCSc1cnc2ccc(C3=NOC(C)(C(=O)NCc4cn(CC)nc4C)C3)cc2c1` (stereo not shown) [compound 264], the “log P” value is 2.76^[a].

In the case of `O=C(NC1CC1)C1(C2CC2)CC(c2ccc3ncc(Br)cc3c2)=NO1` (stereo not shown) [compound 269], the “log P” value was 2.88[a].

Regarding `CCOCCCNC(=O)C1(C2CC2)CC(c2ccc3ncc(Br)cc3c2)=NO1` (stereo not shown) [compound 270], the “log P” value was 3.21[a].

For the compound `CC(C)NC(=O)C12CCCCC1C(c1ccc3ncc(Br)cc3c1)=NO2` (stereo not shown) [compound 272], the “log P” value is 3.55[a].

As for `CC(C)NC(=O)C1(C)ON=C(c2ccc3ncc(Br)cc3c2)C1C` (stereo not shown) [compound 274], the “log P” value was 3.04[a].

Turning to `COc1nc2ccc(C3=NOC(C)(C(=O)NC(C)C)C3)cc2cc1Br` (stereo not shown) [compound 275], the “log P” value was 3.54[a].

`CCSc1cnc2ccc(C3=NOC(C)(C(=O)NCc4cn(CC)nc4C)C3)cc2c1` (stereo not shown) [compound 276]: the “log P” value is 2.39[a].

For `CC(C)NC(=O)C1(F)CC(c2ccc3ncc(Br)cc3c2)=NO1` (stereo not shown) [compound 280], the “log P” value was 2.69[a].

Turning to `CC(=O)C1(C(=O)NC(C)C)CC(c2ccc3ncc(Br)cc3c2)=NO1` (stereo not shown) [compound 281], the “log P” value was 2.88[a].

With `CCC1C(c2ccc3ncc(Br)cc3c2)=NOC1(C)C(=O)NC(C)C` (stereo not shown) [compound 283], the “log P” value is 3.76[a].

Regarding `CCn1cc(CNC(=O)C2(C)CC(c3ccc4ncc(C#N)cc4c3)=NO2)c(C)n1` (stereo not shown) [compound 288], the “log P” value is 1.80[a].

In the case of `CN(C)CCCNC(=O)C1(C)CC(c2ccc3ncc(Br)cc3c2)=NO1` (stereo not shown) [compound 297], the “log P” value was 1.23[a].

Regarding `COCC#CC(C)(C)NC(=O)C1(C)CC(c2ccc3ncc(Br)cc3c2)=NO1` (stereo not shown) [compound 299], the “log P” value was 3.19[a].

As to `CCn1cc(CNC(=O)C2(C)CC(c3ccc4nc(C#N)c(Br)cc4c3)=NO2)c(C)n1` (stereo not shown) [compound 302], the “log P” value was 2.57[a].

Regarding `CC(C)NC(=O)C1(C)CC(c2ccc3nc(C#N)c(Br)cc3c2)=NO1` (stereo not shown) [compound 303], the “log P” value is 3.00[a].

With `C=Cc1cnc2ccc(C3=NOC(C)(C(=O)NCc4cn(CC)nc4C)C3)cc2c1` (stereo not shown) [compound 308], the “log P” value is 1.95[a].

`CC1CCCC1(C#N)NC(=O)C1(C)CC(c2ccc3ncc(Br)cc3c2)=NO1` (stereo not shown) [compound 313]: the “log P” value was 3.27[a].

Consider `CC1(C(=O)NC(COc2ccc(F)cc2)C2CC2)CC(c2ccc3ncc(Br)cc3c2)=NO1` (stereo not shown) [compound 315], for which the “log P” value was 3.99[a].

For `C#Cc1cnc2ccc(C3=NOC(C)(C(=O)NC(C)CC(C)C)C3)cc2c1` (stereo not shown) [compound 316], the “log P” value is 3.37[a].

Turning to `CC1(C(=O)NC2CC2)CC(c2ccc3ncc(Br)cc3c2)=NO1` (stereo not shown) [compound 317], the “log P” value was 2.40[a].

For `C#Cc1cnc2ccc(C3=NOC(C)(C(=O)NC(COc4ccc(F)cc4)C4CC4)C3)cc2c1` (stereo not shown) [compound 318], the “log P” value was 3.58[a].

As for `CC(C)(C)NC(=O)C1(C)CC(c2ccc3ncc(Br)cc3c2)=NO1` (stereo not shown) [compound 319], the “log P” value was 3.39[a].

In the case of `C#Cc1cnc2ccc(C3=NOC(C)(C(=O)NC(C)(C)C(C)C)C3)cc2c1` (stereo not shown) [compound 320], the “log P” value is 3.71[a].

For the compound `CC(C)CC(C)NC(=O)C1(C)CC(c2ccc3ncc(Br)cc3c2)=NO1` (stereo not shown) [compound 321], the “log P” value was 3.80[a].

With `C#Cc1cnc2ccc(C3=NOC(C)(C(=O)NC(C#N)c4ccccc4)C3)cc2c1` (stereo not shown) [compound 324], the “log P” value is 2.88[a].

For `CC(C)C(C)(C)NC(=O)C1(C)CC(c2ccc3ncc(Br)cc3c2)=NO1` (stereo not shown) [compound 325], the “log P” value was 4.19[a].

For the compound `CC(NC(=O)C1(C)CC(c2ccc3ncc(Br)cc3c2)=NO1)c1nn(C)c(=O)n1C` (stereo not shown) [compound 327], the “log P” value is 1.99[a].

`CC(C)CCC(C)NC(=O)C1(C)CC(c2ccc3ncc(Br)cc3c2)=NO1` (stereo not shown) [compound 328]: the “log P” value is 4.21[a].

With `CC(NC(=O)C1(C)CC(c2ccc3ncc(Br)cc3c2)=NO1)c1cccc2ccccc12` (stereo not shown) [compound 340], the “log P” value was 4.09[a].

As to `C#Cc1cnc2ccc(C3=NOC(C)(C(=O)NC(C)c4ccc(OC(F)(F)F)cc4)C3)cc2c1` (stereo not shown) [compound 342], the “log P” value is 3.71[a].

Regarding `CC(NC(=O)C1(C)CC(c2ccc3ncc(Br)cc3c2)=NO1)c1ccc(OC(F)(F)F)cc1` (stereo not shown) [compound 344], the “log P” value is 4.16[a].

As to `C#Cc1cnc2ccc(C3=NOC(C)(C(=O)NC(C)c4ccc(Cl)cc4)C3)cc2c1` (stereo not shown) [compound 346], the “log P” value is 3.44[a].

In the case of `CC(NC(=O)C1(C)CC(c2ccc3ncc(Br)cc3c2)=NO1)c1ccc(Cl)cc1` (stereo not shown) [compound 348], the “log P” value is 3.87[a].

On to `C#Cc1cnc2ccc(C3=NOC(C)(C(=O)NC(C)c4nn(C)c(=O)n4C)C3)cc2c1` (stereo not shown) [compound 352], for which the “log P” value is 1.76[a].

For `C#Cc1cnc2ccc(C3=NOC(C)(C(=O)NC(c4cccc(C)c4)C(F)(F)F)C3)cc2c1` (stereo not shown) [compound 354], the “log P” value is 3.92[a].

For the compound `CC1(C(=O)NC(C#N)c2ccccc2)CC(c2ccc3ncc(Br)cc3c2)=NO1` (stereo not shown) [compound 356], the “log P” value was 3.25[a].

Regarding `Cc1cccc(C(NC(=O)C2(C)CC(c3ccc4ncc(Br)cc4c3)=NO2)C(F)(F)F)c1` (stereo not shown) [compound 358], the “log P” value is 4.36[a].

Consider `C#Cc1cnc2ccc(C3=NOC(C)(C(=O)NC(CN(C)c4ccccc4)C4CC4)C3)cc2c1` (stereo not shown) [compound 359], for which the “log P” value was 3.69[a].

Take `CC1(C(=O)NC(c2cccc(Cl)c2)C(F)(F)F)CC(c2ccc3ncc(Br)cc3c2)=NO1` (stereo not shown) [compound 360]: the “log P” value was 4.39[a].

The data set is the same for the next values; noted with them: method [a]: HPLC/LC-MS on reversed phase at pH 2.7, 0.1% formic acid in water / acetonitrile, gradient 10% to 95% acetonitrile.
Take `CN(CC(NC(=O)C1(C)CC(c2ccc3ncc(Br)cc3c2)=NO1)C1CC1)c1ccccc1` (stereo not shown) [compound 362]: the “log P” value was 4.19[a].

With `CC1(C(=O)NC(CN2CCCC2)C2CC2)CC(c2ccc3ncc(Br)cc3c2)=NO1` (stereo not shown) [compound 364], the “log P” value was 1.53[a].

Take `CC(C)NC(=O)C1(C[Si](C)(C)C)CC(c2ccc3ncc(Br)cc3c2)=NO1` (stereo not shown) [compound 395]: the “log P” value is 4.66[a].

As to `C#Cc1cc2cc(C3=NOC(C)(C(=O)NC(C)C)C3)ccc2nc1C#N` (stereo not shown) [compound 404], the “log P” value was 2.77[a].

Consider `CCn1cc(CNC(=O)C2(C)CC(c3ccc4ncc(C(F)=CC(F)(F)F)cc4c3)=NO2)c(C)n1` (stereo not shown) [compound 405], for which the “log P” value is 2.84[a].

On to `CCn1cc(CNC(=O)C2(C[Si](C)(C)C)CC(c3ccc4ncc(Br)cc4c3)=NO2)c(C)n1` (stereo not shown) [compound 413], for which the “log P” value was 2.83[a].

As to `CCn1cc(CNC(=O)C2(C)CC(c3ccc4ncc(NC(=O)OC(C)(C)C)cc4c3)=NO2)c(C)n1` (stereo not shown) [compound 421], the “log P” value is 2.44[a].

`C#Cc1cnc2ccc(C3=NOC(C)(C(=O)NC(COC)COC)C3)cc2c1` (stereo not shown) [compound 459]: the “log P” value is 2.30[a].

Turning to `C#Cc1cnc2ccc(C3=NOC(C)(C(=O)NC4=NCCO4)C3)cc2c1` (stereo not shown) [compound 460], the “log P” value is 1.52[a].

Take `CCn1cc(CNC(=S)C2(OC)CC(c3ccc4ncc(Br)cc4c3)=NO2)c(C)n1` (stereo not shown) [compound 478]: the “log P” value was 3.15[a].

Regarding `CC1(C(=O)NCc2ccsc2)CC(c2ccc3ncc(Br)cc3c2)=NO1` (stereo not shown) [compound 479], the “log P” value is 3.07[a].

Take `CCn1cc(CNC(=O)C2(C)CC(c3ccc4nc(C(N)=O)c(I)cc4c3)=NO2)c(C)n1` (stereo not shown) [compound 484]: the “log P” value was 1.60[a].

Take `COc1nc2ccc(C3=NOC(C)(C(=O)NC(C)C)C3)cc2cc1I` (stereo not shown) [compound 485]: the “log P” value is 3.72[a].

For the compound `CC(C)NC(=O)C1(C)CC(c2ccc3nc(Cl)c(I)cc3c2)=NO1` (stereo not shown) [compound 486], the “log P” value was 3.50[a].

As to `Cc1ncsc1CNC(=O)C1(C)CC(c2ccc3ncc(Br)cc3c2)=NO1` (stereo not shown) [compound 487], the “log P” value was 2.28[a].

As for `CC1(C(=O)NCc2nccs2)CC(c2ccc3ncc(Br)cc3c2)=NO1` (stereo not shown) [compound 488], the “log P” value was 2.32[a].

Turning to `CCn1nc(C)c(NC(=O)C2(C)CC(c3ccc4ncc(Br)cc4c3)=NO2)c1C` (stereo not shown) [compound 492], the “log P” value was 2.41[a].

Consider `CC1(C(=O)NC(C)(C)c2ccon2)CC(c2ccc3ncc(Br)cc3c2)=NO1` (stereo not shown) [compound 494], for which the “log P” value was 2.86[a].
